Assay results reported in patent US10092003B2, “Insect control device and associated methods” (Novel Textiles & Treatments LLC, priority 2014, dated 2018).

Assay: Transfluthrin evaporation / release rate from loaded fabric substrates (aging, acetone extraction, GC-MS)
Format: physicochemical
Description: In some cases, release rates of the pyrethroids may range between about 0.1 milligrams per hour and about 3 milligrams per hour, as measured by gas chromatography mass spectroscopy (GC-MS). In some embodiments, the release rate may range between about 0.1 milligrams per hour and about 3 milligrams per hour, between about 0.5 milligrams per hour and about 3 milligrams per hour, or between about 1 milligrams per hour and about 3 milligrams per hour for an overall device of the invention, as measured by GC-MS. Other release rates are also possible. The release rate of the pyrethroid may be determined, for example, by immersing a loaded substrate in a suitable solvent (e.g., acetone) and sonicating. The substrate may then be rinsed and the solvent containing the released pyrethroid is collected. […]
Fabric samples comprised of cellulose or glass were prepared with Transfluthrin using either a wet application, or a wet application followed by a dry application, as described herein. […] The amount of Transfluthrin in the extracted sample was measured using a Restel Rtx®-5MS gas chromatography—mass spectrometry column. […] Evaporation rates, as determined by solvent extraction of Transfluthrin and followed by GC-MS as described previously, for cellulose fabric wet application and wet-and-dry application samples (Samples A and B in Table 1) are plotted in FIG. 3A and FIG. 3B, respectively. […]

Structure (SMILES): CC1(C)[C@H](C=C(Cl)Cl)[C@H]1C(=O)OCc1c(F)c(F)cc(F)c1F [transfluthrin, Transfluthrin]
- evaporation rate (combination of particle size distributions on 5″×4″ square fabric of cellulose): 0.5 mg per 21 days
- evaporation rate (on an equivalent 20″×20″ cellulose fabric): 10 mg per 21 days
